Assay results: the Deep4Chem optical property database

Test: solvent given as SMILES

Question: With `BrC1=CN2C[n+]3cc(Br)cc(Br)c3N=C2C(Br)=C1` as the compound, how does the absorption maximum (in CS(C)=O) read?
Answer: 449 nm

Question: For `[C-]#[N+]c1ccc(-c2ccc(N)cc2)cc1`, which absorption maximum (in C1CCCCC1) is on record?
Answer: 302 nm

Question: And the absorption maximum (in C1CCOC1)?
Answer: 319 nm

Question: What about the absorption maximum (in C1COCCO1) of the same compound?
Answer: 315 nm

Question: What about the absorption maximum (in CC#N) of the same compound?
Answer: 310 nm

Question: What about the absorption maximum (in CC(C)=O) of the same compound?
Answer: 329 nm

Question: And the absorption maximum (in CCCCCC)?
Answer: 301 nm

Question: What about the absorption maximum (in CCOC(C)=O) of the same compound?
Answer: 315 nm

Question: And the absorption maximum (in CN(C)C=O)?
Answer: 314 nm

Question: And the absorption maximum (in CO)?
Answer: 308 nm

Question: What about the absorption maximum (in CS(C)=O) of the same compound?
Answer: 318 nm

Question: What about the absorption maximum (in Cc1ccccc1) of the same compound?
Answer: 310 nm

Question: And the absorption maximum (in ClC(Cl)Cl)?
Answer: 305 nm

Question: And the absorption maximum (in ClCCl)?
Answer: 307 nm

Question: And the absorption maximum (in O)?
Answer: 298 nm

Question: And the absorption maximum (in c1ccncc1)?
Answer: 325 nm

Question: With `CCCCCCC(CCCCCC)N1C(=O)c2cccc3c(-c4ccc(C#N)cc4)ccc(c23)C1=O` as the compound, how does the absorption maximum (in CCCCCC) read?
Answer: 355.6 nm

Question: What about the absorption maximum (in CCCCCCCCCCCCCC) of the same compound?
Answer: 356.2 nm

Question: And the absorption maximum (in CCCCCCCCCCCO)?
Answer: 365.8 nm

Question: And the absorption maximum (in CCCCO)?
Answer: 367.8 nm

Question: And the absorption maximum (in CN(C)C=O)?
Answer: 367.8 nm

Question: What about the absorption maximum (in Cc1ccccc1) of the same compound?
Answer: 364.6 nm

Question: What about the absorption maximum (in ClC(Cl)Cl) of the same compound?
Answer: 366.4 nm

Question: With `N#CC1=C(N)n2c(=O)c3ccccc3c(=O)n2C1c1ccccc1` (stereo not given) as the compound, how does the absorption maximum (in CS(C)=O) read?
Answer: 360 nm

Question: With `O=C1c2ccccc2-c2nc3c4ccccc4c4ccccc4c3n21` as the compound, how does the absorption maximum (in ClCCl) read?
Answer: 441 nm

Question: For `N#Cc1nc(N(Cc2ccc(Br)cc2)Cc2ccc(Br)cc2)c(C#N)nc1N(Cc1ccc(Br)cc1)Cc1ccc(Br)cc1`, which absorption maximum (in ClC(Cl)Cl) is on record?
Answer: 485 nm

Question: What does the source list for `O=Cc1cnc(-c2c3ccccc3cc3ccccc23)nc1`?
Answer: absorption maximum (in CCO): 381 nm; absorption maximum (in ClCCl): 384 nm

Question: For `CCC12C(=C3C(=C4c5ccc(-c6ccc(C(C)=O)s6)cc5S(=O)(=O)C41CC)C(F)(F)C(F)(F)C3(F)F)c1ccc(-c3ccc(C(C)=O)s3)cc1S2(=O)=O` (stereo not given), which absorption maximum (in C1COCCO1) is on record?
Answer: 485 nm

Question: For `CC(C)C[Si](C#Cc1c2c(=O)c3ccccc3c2c(C#C[Si](CC(C)C)(CC(C)C)CC(C)C)c2c(=O)c3ccccc3c12)(CC(C)C)CC(C)C`, which absorption maximum (in ClC(Cl)Cl) is on record?
Answer: 524 nm

Question: Which absorption maximum (in CCO) does the source give for `COc1cc(F)c(C(=O)c2cc(F)c(OC)cc2F)cc1F` here?
Answer: 301 nm

Question: Which absorption maximum (in ClC(Cl)Cl) does the source give for `Cc1ccccc1Oc1ccc2c3c(cccc13)C(=O)N(CCO)C2=O` here?
Answer: 355 nm

Question: Which absorption maximum (in C1CCOC1) does the source give for `C(=C\c1ccc(-c2nnc(-c3ccc(/C=C/c4ccc(-c5nc(-c6ccccc6)c(-c6ccccc6)[nH]5)cc4)cc3)o2)cc1)/c1ccc(-c2nc(-c3ccccc3)c(-c3ccccc3)[nH]2)cc1` here?
Answer: 396 nm

Question: And the absorption maximum (in CC#N)?
Answer: 391 nm

Question: What about the absorption maximum (in CN(C)C=O) of the same compound?
Answer: 397 nm

Question: And the absorption maximum (in Cc1ccccc1)?
Answer: 397 nm

Question: With `c1ccc(C2(c3ccccc3)c3ccc4ccc5ccccc5c4c3-c3c2ccc2ccc4ccccc4c32)cc1` as the compound, how does the absorption maximum (in ClCCl) read?
Answer: 408 nm

Question: With `CCOC(=O)c1cc(C(=O)OCC)c2ccc(N(C)C)cc2n1` as the compound, how does the absorption maximum (in CCO) read?
Answer: 430 nm

Question: With `CCc1c(C)c2n(c1C)[B-](F)(F)[N+]1=C(c3ccc[nH]3)c3ccccc3C1=C2` as the compound, how does the absorption maximum (in C1CCOC1) read?
Answer: 613 nm

Question: What about the absorption maximum (in CC#N) of the same compound?
Answer: 608 nm

Question: What about the absorption maximum (in CCCCCC) of the same compound?
Answer: 614 nm

Question: What about the absorption maximum (in CO) of the same compound?
Answer: 609 nm

Question: What about the absorption maximum (in Cc1ccccc1) of the same compound?
Answer: 620 nm

Question: And the absorption maximum (in ClCCl)?
Answer: 616 nm

Question: With `COc1cc2oc(=O)c3c4ccc(C=O)cc4c4ccc5cccc6c(c1)c2c3c4c56` as the compound, how does the absorption maximum (in C1CCOC1) read?
Answer: 425 nm

Question: With `CCOC(=O)c1ccccc1-c1c2ccc(=[N+](CC)CC)cc-2oc2c1c(=O)oc1cc3c(cc12)CCCN3C` as the compound, how does the absorption maximum (in CCO) read?
Answer: 602 nm

Question: And the absorption maximum (in ClC(Cl)Cl)?
Answer: 608 nm

Question: What about the absorption maximum (in O) of the same compound?
Answer: 602 nm

Question: Which absorption maximum (in ClCCl) does the source give for `CC(C)(C)c1ccc2ccc3cc(-c4ccc5c(-c6ccc7c(ccc8ccc(C(C)(C)C)cc87)c6)cc6c7cc(-c8ccc9c(ccc%10ccc(C(C)(C)C)cc%109)c8)ccc7c(-c7ccc8c(ccc9ccc(C(C)(C)C)cc98)c7)cc6c5c4)ccc3c2c1` here?
Answer: 303 nm

Question: With `C[Si]1(C)O[Si](C)(C)c2cc3nc4ccccc4c(-c4ccccc4)c3cc2[Si](C)(C)O1` as the compound, how does the absorption maximum (in ClCCl) read?
Answer: 368 nm

Question: Which absorption maximum (in CC#N) does the source give for `C=CCNc1ccc2ccc3oc4cc(=[N+]5CCCC5)ccc-4nc3c2c1` here?
Answer: 576 nm

Question: What about the absorption maximum (in CCO) of the same compound?
Answer: 570 nm

Question: What about the absorption maximum (in ClCCl) of the same compound?
Answer: 588 nm

Question: And the absorption maximum (in O)?
Answer: 556 nm

Question: Which absorption maximum (in C1CCOC1) does the source give for `CCn1c2ccccc2c2cc(/C=C3\C(=O)c4ccccc4S3(=O)=O)ccc21` here?
Answer: 446 nm

Question: What about the absorption maximum (in C1COCCO1) of the same compound?
Answer: 443 nm

Question: And the absorption maximum (in CC#N)?
Answer: 442 nm

Question: What about the absorption maximum (in CC(C)=O) of the same compound?
Answer: 442 nm

Question: What about the absorption maximum (in CCOC(C)=O) of the same compound?
Answer: 441 nm

Question: And the absorption maximum (in CN(C)C=O)?
Answer: 449 nm

Question: And the absorption maximum (in CO)?
Answer: 446 nm

Question: And the absorption maximum (in CS(C)=O)?
Answer: 454 nm

Question: What about the absorption maximum (in Cc1ccccc1) of the same compound?
Answer: 453 nm

Question: And the absorption maximum (in ClC(Cl)Cl)?
Answer: 454 nm

Question: And the absorption maximum (in ClCCl)?
Answer: 448 nm

Question: With `O[Si](c1c2ccccc2cc2ccccc12)(c1c2ccccc2cc2ccccc12)c1c2ccccc2cc2ccccc12` as the compound, how does the absorption maximum (in ClC(Cl)Cl) read?
Answer: 402 nm

Question: Which absorption maximum (in CC1CCCCC1) does the source give for `CCCCOc1ccc(/C=C/C=C/C=C/c2ccc([N+](=O)[O-])cc2)cc1` here?
Answer: 414 nm

Question: What about the absorption maximum (in CC#N) of the same compound?
Answer: 413 nm

Question: What about the absorption maximum (in Cc1ccccc1) of the same compound?
Answer: 420 nm

Question: And the absorption maximum (in ClCCl)?
Answer: 421 nm
